{"source": "patent US8999375B2", "about": "“Compositions including pyruvate for companion animals and methods of use thereof” (Hill's Pet Nutrition, Inc., priority 2009, dated 2015)", "system": "arthritic and normal cats", "experiment": "Feline arthritis biomarker measurements in arthritic and normal cats", "format": "in vivo", "details": "1% by weight in diet, 28 days", "procedure": "Calcium pyruvate was tested in arthritic and normal cats to determine efficacy in reducing cartilage damage and inflammatory markers. Ten normal and ten arthritis cats were fed the feline control diet enhanced with 1% by weight calcium pyruvate for 28 days. Analysis was performed on natural log transformed values. Means and SED are antilog values of log transformed data."}
{"substance": "calcium pyruvate", "values": [{"measurement": "concentration of serum HMGB1 (in words)", "value": "reduced"}, {"measurement": "concentration of serum IL-1 beta (in words)", "value": "reduced"}, {"measurement": "marker of bone formation, BAP (in words)", "value": "improved"}]}
